In patent US6608086B2, “Dihydropyridines and new uses thereof” (Synaptic Pharmaceutical Corporation, priority 1993, dated 2003):
Where two headings read alike, the source gives them in different places.

Experiments:
[1] = target: T1, α1A Human Adrenergic Receptor (Homo sapiens, UniProt P25100); experiment: Radioligand binding, [3H]prazosin, cloned human α1A adrenergic receptor
T1 construct: The entire coding region of α1A (1719 bp); expressed in transfected cells
T1 sequence (P25100 1-572): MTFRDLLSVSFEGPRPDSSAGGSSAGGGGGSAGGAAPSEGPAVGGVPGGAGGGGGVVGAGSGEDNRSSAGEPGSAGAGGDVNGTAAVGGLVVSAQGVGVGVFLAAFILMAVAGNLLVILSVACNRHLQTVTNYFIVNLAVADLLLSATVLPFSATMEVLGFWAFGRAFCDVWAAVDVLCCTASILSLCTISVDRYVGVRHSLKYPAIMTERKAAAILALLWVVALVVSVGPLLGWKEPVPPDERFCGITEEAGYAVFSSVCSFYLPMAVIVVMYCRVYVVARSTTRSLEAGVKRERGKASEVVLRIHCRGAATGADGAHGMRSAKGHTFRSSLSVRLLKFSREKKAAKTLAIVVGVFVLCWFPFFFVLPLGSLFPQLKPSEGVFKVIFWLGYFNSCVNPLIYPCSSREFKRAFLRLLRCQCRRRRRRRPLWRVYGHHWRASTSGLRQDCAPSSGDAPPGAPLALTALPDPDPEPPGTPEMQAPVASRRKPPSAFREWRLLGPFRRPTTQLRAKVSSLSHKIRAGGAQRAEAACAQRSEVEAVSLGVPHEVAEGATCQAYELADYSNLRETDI
How it was run: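 Binding of [3H]prazosin (0.5 nM) was measured at 37° C over 20 min in pH 7.5 Tris/MgCl2/ascorbate buffer, using membrane preparations of LM(tk−) cells expressing cloned human α1A receptor. Filtration through GF/B filters stopped the reaction. 10 μM phentolamine gave nonspecific binding.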

[2] = target: T2, α1B Human Adrenergic Receptor (Homo sapiens, UniProt P35368); experiment: Radioligand binding, [3H]prazosin, cloned human α1B adrenergic receptor
T2 construct: The entire coding region of α1B (1563 bp); expressed in transfected cells
T2 sequence (P35368 1-520): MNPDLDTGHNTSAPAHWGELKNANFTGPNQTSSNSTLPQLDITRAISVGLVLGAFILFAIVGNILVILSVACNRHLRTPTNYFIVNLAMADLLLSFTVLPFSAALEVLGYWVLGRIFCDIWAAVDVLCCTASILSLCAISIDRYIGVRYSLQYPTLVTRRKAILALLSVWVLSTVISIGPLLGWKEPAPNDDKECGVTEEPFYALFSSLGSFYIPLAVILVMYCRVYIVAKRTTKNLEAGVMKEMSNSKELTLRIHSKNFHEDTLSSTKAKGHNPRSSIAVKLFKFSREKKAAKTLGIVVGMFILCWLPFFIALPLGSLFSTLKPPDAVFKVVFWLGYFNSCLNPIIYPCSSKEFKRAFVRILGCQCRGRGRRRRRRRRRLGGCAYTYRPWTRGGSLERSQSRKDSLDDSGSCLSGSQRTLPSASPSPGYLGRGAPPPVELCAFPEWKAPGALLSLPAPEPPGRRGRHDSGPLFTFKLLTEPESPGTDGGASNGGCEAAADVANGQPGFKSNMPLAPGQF
How it was run: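 [3H]prazosin (0.5 nM) binding was run for 20 min at 37° C in pH 7.5 Tris/MgCl2/ascorbate buffer on membranes of LM(tk−) cells stably expressing the cloned receptor. Filtration through GF/B ended the reaction; 10 μM phentolamine gave nonspecific binding.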

[3] = target: T3, α1C Human Adrenergic Receptor (Homo sapiens, UniProt P35348); experiment: Radioligand binding, [3H]prazosin, cloned human α1C adrenergic receptor
T3 construct: The entire coding region of α1C (1401 bp); expressed in transfected cells
T3 sequence (P35348 1-466): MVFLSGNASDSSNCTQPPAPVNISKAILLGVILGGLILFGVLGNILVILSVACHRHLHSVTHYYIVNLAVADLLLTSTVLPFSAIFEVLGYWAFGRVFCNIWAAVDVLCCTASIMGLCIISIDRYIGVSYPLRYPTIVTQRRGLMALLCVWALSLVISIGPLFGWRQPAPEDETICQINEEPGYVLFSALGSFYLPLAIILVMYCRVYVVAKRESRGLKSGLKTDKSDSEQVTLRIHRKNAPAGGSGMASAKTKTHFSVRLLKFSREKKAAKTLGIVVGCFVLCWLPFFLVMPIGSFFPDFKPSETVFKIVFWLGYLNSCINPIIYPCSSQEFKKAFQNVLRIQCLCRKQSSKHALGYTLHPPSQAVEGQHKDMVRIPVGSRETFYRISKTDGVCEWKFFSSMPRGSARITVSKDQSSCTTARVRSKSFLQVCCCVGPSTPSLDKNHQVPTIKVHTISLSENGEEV
How it was run: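 Membranes from LM(tk−) cells stably expressing the cloned human α1C receptor were incubated with 0.5 nM [3H]prazosin at 37° C. for 20 min in 50 mM Tris-HCl, 1 mM MgCl2, 0.1% ascorbic acid, pH 7.5. Nonspecific binding was defined with 10 μM phentolamine, and bound ligand was separated by GF/B filtration.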

L-type calcium channel = target: T4, L-type calcium channel (Rattus norvegicus, UniProt P22002); experiment: Competition binding of [3H]nitrendipine to membrane fragments of rat cardiac muscle
T4 construct: membrane fragments of rat cardiac muscle; from tissue; host or cells: rat cardiac muscle membranes
Experimental: The protocols for these experiments are given below.
Determination of the Activity of al Antagonists at Calcium Channels
Briefly, the tissue was minced and homogenized in 50 mM Tris-HCl (pH 7.4) containing 0.1 mM phenylmethylsulfonyl fluoride. The homogenates were centrifuged at 1000 g for 15 minutes, the resulting supernatant was centrifuged at 45,000 g for 15 minutes. The 45,000 g pellet was suspended in buffer and centrifuged a second time. Aliquots of membrane protein were incubated for 30 minutes at 37° C. in the presence of [3H]nitrendipine (1 nM), and nonspecific binding was determined in the presence of 10 μM nifedipine. The bound radioligand was separated by filtration through GF/B filters using a cell harvester.

[4] = PKi alpha-1 1a, [3H]prazosin, cloned human receptor, LM(tk-) cell membranes, mean
[5] = PKi alpha-1 1b, cloned human receptor, LM(tk-) cell membranes, mean
[6] = PKi alpha-1 1c, cloned human receptor, LM(tk-) cell membranes, mean
[7] = [3H]nitrendipine, rat cardiac muscle membranes, mean, read-out: PKi Ca (converted)
[8] = [3H]prazosin, cloned human receptor, LM(tk-) cell membranes, mean, read-out: PKi alpha-1 1a (converted)
[9] = cloned human receptor, LM(tk-) cell membranes, mean, read-out: PKi alpha-1 1b (converted)
[10] = cloned human receptor, LM(tk-) cell membranes, mean, read-out: PKi alpha-1 1c (converted)

T4 sequence (P22002 whole entry, other chains not shown, the tested form may be a part): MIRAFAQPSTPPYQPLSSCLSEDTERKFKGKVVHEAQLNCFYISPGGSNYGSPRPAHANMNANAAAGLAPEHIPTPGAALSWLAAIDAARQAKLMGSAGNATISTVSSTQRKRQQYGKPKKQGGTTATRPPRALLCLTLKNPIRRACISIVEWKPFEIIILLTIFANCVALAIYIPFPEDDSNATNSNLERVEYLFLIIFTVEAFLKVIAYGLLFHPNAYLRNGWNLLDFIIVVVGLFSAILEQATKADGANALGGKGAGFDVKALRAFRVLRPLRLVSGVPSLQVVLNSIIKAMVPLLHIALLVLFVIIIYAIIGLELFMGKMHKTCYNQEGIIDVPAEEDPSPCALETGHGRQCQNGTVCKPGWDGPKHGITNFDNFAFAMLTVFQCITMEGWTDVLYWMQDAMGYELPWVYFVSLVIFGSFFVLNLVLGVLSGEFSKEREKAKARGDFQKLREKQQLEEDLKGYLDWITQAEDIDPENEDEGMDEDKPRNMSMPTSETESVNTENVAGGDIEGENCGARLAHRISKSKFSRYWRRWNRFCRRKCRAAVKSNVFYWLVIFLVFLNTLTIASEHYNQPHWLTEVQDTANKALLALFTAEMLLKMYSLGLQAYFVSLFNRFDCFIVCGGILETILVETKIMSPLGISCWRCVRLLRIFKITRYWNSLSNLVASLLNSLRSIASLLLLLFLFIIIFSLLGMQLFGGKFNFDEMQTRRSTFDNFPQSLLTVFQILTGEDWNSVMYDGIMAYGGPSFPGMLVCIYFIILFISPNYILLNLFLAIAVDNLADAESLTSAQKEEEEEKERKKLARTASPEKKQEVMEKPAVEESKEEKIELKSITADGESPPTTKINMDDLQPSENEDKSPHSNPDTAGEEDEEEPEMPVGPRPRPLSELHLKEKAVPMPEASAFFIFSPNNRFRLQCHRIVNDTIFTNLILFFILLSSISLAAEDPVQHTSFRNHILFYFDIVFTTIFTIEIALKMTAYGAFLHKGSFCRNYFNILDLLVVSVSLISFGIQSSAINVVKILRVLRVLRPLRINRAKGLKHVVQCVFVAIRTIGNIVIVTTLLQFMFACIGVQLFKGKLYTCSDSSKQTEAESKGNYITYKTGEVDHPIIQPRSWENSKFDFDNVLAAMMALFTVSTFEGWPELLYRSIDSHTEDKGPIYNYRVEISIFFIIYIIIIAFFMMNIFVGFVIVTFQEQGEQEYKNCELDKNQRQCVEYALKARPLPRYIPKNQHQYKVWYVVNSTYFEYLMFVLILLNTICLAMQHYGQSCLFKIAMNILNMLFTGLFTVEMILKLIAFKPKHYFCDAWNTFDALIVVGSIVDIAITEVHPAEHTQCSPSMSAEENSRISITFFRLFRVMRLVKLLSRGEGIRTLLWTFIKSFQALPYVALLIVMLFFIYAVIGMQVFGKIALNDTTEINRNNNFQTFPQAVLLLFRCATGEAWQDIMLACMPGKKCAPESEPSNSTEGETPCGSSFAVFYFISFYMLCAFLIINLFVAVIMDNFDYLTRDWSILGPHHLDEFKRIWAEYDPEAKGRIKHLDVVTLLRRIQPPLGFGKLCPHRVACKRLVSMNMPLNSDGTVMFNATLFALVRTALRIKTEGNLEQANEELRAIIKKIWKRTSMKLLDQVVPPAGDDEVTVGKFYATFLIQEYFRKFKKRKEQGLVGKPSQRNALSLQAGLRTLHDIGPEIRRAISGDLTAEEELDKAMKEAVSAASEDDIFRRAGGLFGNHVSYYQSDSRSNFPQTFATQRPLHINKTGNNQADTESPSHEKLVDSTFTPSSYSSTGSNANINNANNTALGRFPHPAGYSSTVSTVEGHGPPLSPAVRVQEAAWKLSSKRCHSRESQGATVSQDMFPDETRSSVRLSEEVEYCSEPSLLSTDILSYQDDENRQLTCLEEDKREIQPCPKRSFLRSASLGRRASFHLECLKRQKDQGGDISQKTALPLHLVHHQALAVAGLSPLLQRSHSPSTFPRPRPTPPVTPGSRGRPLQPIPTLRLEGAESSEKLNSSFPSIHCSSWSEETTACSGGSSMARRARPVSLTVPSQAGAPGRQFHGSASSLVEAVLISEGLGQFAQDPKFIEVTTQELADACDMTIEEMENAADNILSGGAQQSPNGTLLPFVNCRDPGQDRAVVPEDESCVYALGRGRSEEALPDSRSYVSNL
T4 sequence (P54290 25-944 partner limits assumed, other chains not shown): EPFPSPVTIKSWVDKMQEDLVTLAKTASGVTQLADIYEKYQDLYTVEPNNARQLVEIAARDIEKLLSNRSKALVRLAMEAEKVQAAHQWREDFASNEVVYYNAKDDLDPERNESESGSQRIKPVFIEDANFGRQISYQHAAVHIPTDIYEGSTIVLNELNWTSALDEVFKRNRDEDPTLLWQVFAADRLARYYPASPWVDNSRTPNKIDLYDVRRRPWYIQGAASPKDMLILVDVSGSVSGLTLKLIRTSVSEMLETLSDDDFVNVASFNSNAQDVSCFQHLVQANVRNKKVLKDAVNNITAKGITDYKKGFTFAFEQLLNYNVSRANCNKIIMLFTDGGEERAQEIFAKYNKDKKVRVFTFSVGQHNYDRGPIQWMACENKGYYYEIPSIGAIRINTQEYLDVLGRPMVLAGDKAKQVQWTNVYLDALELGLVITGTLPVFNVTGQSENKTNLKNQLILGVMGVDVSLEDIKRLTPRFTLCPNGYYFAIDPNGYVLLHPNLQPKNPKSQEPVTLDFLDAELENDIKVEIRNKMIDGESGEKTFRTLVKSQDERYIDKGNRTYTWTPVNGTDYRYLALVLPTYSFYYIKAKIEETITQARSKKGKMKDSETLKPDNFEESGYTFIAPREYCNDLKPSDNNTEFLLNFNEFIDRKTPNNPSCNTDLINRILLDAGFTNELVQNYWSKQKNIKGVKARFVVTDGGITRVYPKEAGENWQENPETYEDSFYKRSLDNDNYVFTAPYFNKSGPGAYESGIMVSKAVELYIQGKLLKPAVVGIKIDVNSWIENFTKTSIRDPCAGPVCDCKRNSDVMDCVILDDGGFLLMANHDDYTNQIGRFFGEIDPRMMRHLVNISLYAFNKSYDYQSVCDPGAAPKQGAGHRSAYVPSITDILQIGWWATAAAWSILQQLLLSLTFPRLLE
T4 sequence (P54290 945-1091 partner limits assumed, other chains not shown): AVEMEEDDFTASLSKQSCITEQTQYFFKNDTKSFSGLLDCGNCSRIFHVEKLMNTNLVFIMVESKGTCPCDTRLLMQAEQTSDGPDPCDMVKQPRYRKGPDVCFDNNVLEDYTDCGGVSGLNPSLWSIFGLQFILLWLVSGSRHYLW

| SMILES | melting point | Ki [1, 4] [µM] | Ki [2, 5] [µM] | Ki [3, 6] [µM] | Ki (L-type calcium channel; [7]) [µM] | Ki [1, 8] [µM] | Ki [2, 9] [µM] | Ki [3, 10] [µM] | further results |
| --- | --- | --- | --- | --- | --- | --- | --- | --- | --- |
| CCCC1=C(C(=O)NCC)C(c2ccc([N+](=O)[O-])cc2)C(C(=O)NCCCN2CCC(c3ccccc3)(c3ccccc3)CC2)=C(CCC)N1 (centres unmarked) [Example 159, 5-(N-Ethyl)carboxamido-1,4-dihydro-4-(4-nitrophenyl)-3-{N-[3-(4,4-diphenylpiperidin-1-yl)propyl]}carboxamido-2,6-dipropylpyridine] | 123 to 128 °C | – | – | – | – | – | – | – | Ki ([1]; pKi alpha-1 1a): 0.389 µM; Ki ([2]; cloned human α1B receptor, LM(tk−) cell membranes, read-out: pKi alpha-1 1b (converted)): 0.178 µM; Ki ([3]; cloned human α1C receptor, LM(tk−) cell membranes, read-out: pKi alpha-1 1c (converted)): 0.00501 µM; Ki (L-type calcium channel; pKi Ca): 1.66 µM |
| CCCC1=C(C(=O)O)C(c2ccc([N+](=O)[O-])cc2)C(C(=O)NCCCN2CCC(c3ccccc3)(c3ccccc3)CC2)=C(CCC)N1 (centres unmarked) [Example 161, 1,4-Dihydro-4-(4-nitrophenyl)-5-{N-[3-(4,4-diphenylpiperidin-1-yl)propyl]}carboxamido-2,6-dipropylpyridine-3-carboxylic acid] | 126 to 130 °C | – | – | – | – | – | – | – | Ki ([1]; pKi alpha-1 1a, [3H]prazosin, cloned human α1A receptor, LM(tk−) cell membranes): 1.32 µM; Ki ([2]; pKi alpha-1 1b, cloned human α1B receptor, LM(tk−) cell membranes): 0.407 µM; Ki ([3]; pKi alpha-1 1c, cloned human α1C receptor, LM(tk−) cell membranes): 0.0389 µM; Ki (L-type calcium channel; [3H]nitrendipine, rat cardiac muscle membrane fragments, L-type calcium channel, read-out: pKi Ca (converted)): 1000 µM |
| COc1ccc(C2(c3ccccc3)CCN(CCCNC(=O)C3=C(COCCN=[N+]=[N-])NC(C)=C(C(N)=O)C3c3ccc([N+](=O)[O-])cc3)CC2)cc1 (centres unmarked) [Example 184, 2-[(2-Azidoethoxy)methyl]-5-carboxamido-1,4-dihydro-3-{N-[3-(4-(4-methoxyphenyl)-4-phenylpiperidin-1-yl)propyl]}carboxamido-6-methyl-4-(4-nitrophenyl)pyridine] | 105 to 107 °C | 0.741 | 0.174 | 0.00955 | 12.3 | – | – | – | – |
| CCC1=C(C(=O)O)C(c2ccc([N+](=O)[O-])cc2)C(C(=O)NCCCN2CCC(c3ccccc3)(c3ccccc3)CC2)=C(COCCN)N1 (centres unmarked) [Example 219, 2-((2-Aminoethyl)oxy)methyl-6-ethyl-1,4-dihydro-4-(4-nitro)phenyl-3-(N-(3-(4,4-diphenylpiperidin-1-yl)propyl))carboxamidopyridine-5-carboxylic Acid] | 180 °C (dec.) | 2.69 | 1.23 | 0.0302 | 575 | – | – | – | – |
| CCC1=C(C(=O)OCCC#N)C(c2ccc([N+](=O)[O-])cc2)C(C(=O)NCCCN2CCC(C#N)(c3ccccc3)CC2)=C(COC)N1 (centres unmarked) [Example 220, 5-(2-Cyanoethoxy)carbonyl-3-(N-(3-(4-cyano-4-phenylpiperidin-1-yl)propyl))carboxamido-6-ethyl-1,4-dihydro-2-methyloxymethyl-4-(4-nitro)phenylpyridine] | 58 to 68 °C | 2.14 | 0.525 | 0.00977 | 437 | – | – | – | – |
| CCC1=C(C(=O)OCCC#N)C(c2ccc([N+](=O)[O-])cc2)C(C(=O)NCCCN2CCC(c3ccccc3)CC2)=C(COC)N1 (centres unmarked) [Example 221, 5-(2-Cyanoethoxy) carbonyl-6-ethyl-1,4-dihydro-2-methyloxymethyl-4-(4-nitro)phenyl-3-(N-(3-(4-phenylpiperidin-1-yl)propyl))carboxamidopyridine] | 55 to 63 °C | – | – | – | 14.1 | 0.186 | 0.0525 | 0.00617 | – |
| CCC1=C(C(=O)O)C(c2ccc([N+](=O)[O-])cc2)C(C(=O)NCCCN2CCC(C#N)(c3ccccc3)CC2)=C(COC)N1 (centres unmarked) [Example 222, 3-(N-(3-(4-Cyano-4-phenylpiperidin-1-yl)propyl))carboxamido-6-ethyl-1,4-dihydro-2-methyloxymethyl-4-(4-nitro) phenylpyridine-5-carboxylic Acid] | 115 °C (dec.) | 14.1 | 6.76 | 0.0417 | 282 | – | – | – | – |
| CCC1=C(C(=O)OCCC#N)C(c2ccc([N+](=O)[O-])cc2)C(C(=O)NCCCN2CCC(C(=O)OC)(c3ccccc3)CC2)=C(COCCN=[N+]=[N-])N1 (centres unmarked) [Example 226, 2-((2-Azidoethyl)oxy) methyl-5-(2-cyanoethoxy) carbonyl-6-ethyl-1,4-dihydro-3-(N-(3-(4-methoxycarbonyl-4-phenylpiperidin-1-yl)propyl))carboxamido-4-(4-nitro)phenylpyridine] | 54 to 60 °C | – | – | – | 8.71 | 0.224 | 0.0977 | 0.011 | – |
| CCC1=C(C(=O)O)C(c2ccc([N+](=O)[O-])cc2)C(C(=O)NCCCN2CCC(C(=O)OC)(c3ccccc3)CC2)=C(COCCN=[N+]=[N-])N1 (centres unmarked) [Example 227, 2-((2-Azidoethyl)oxy)methyl-6-ethyl-1,4-dihydro-3-(N-(3-(4-methoxycarbonyl-4-phenylpiperidin-1-yl)propyl))carbo xamido-4-(4-nitro)phenylpyridine-5-carboxylic Acid] | 110 to 120 °C | – | – | – | 70.8 | 5.13 | 2.63 | 0.0234 | – |
| CCC1=C(C(=O)NC)C(c2ccc([N+](=O)[O-])cc2)C(C(=O)NCCCN2CCC(C(=O)OC)(c3ccccc3)CC2)=C(COCCN=[N+]=[N-])N1 (centres unmarked) [Example 228, 2-((2-Azidoethyl)oxy)methyl-6-ethyl-1,4-dihydro-3-(N-(3-(4-methoxycarbonyl-4-phenylpiperidin-1-yl)propyl))carbo xamido-5-N-methylcarboxamido-4-(4-nitro)phenylpyridine] | 73 to 83 °C | – | – | – | 33.9 | 3.47 | 1.48 | 0.0166 | – |
